Read-outs that look alike come from different tables or passages of the source.
Tests used:
[1] = target: T1, glycosomal T. b. rhodesiense glyceraldehyde-3-phosphate dehydrogenase (TbrGAPDH) (Trypanosoma brucei brucei, UniProt P22512); experiment: Thermal stability assay (CD spectroscopy) regarding TbrGAPDH; format: binding; settings: compound at 50 µM
T1 construct: made in house; host or cells: E. coli BL21(DE3), pET28a
Method: Thermal unfolding of TbrGAPDH and TbrAK was studied by circular dichroism (CD) spectroscopy at 220 nm within the temperature range of 20–90°C using a heating rate of 40°C/h. […]
All measurements were done in a 0.5 mm cell and contained 0.1 %
(§1) DMSO and 2.5 mM EDTA to prevent enzyme activity. Thermal stability was analyzed in presence of 500 µM substrate to record the maximum stability limit, whereas compounds 1 to 5 were used at a concentration of 50 µM, being the highest concentration achievable for compound 2, to allow comparison of all compounds at the same concentration. For evaluation of the CD spectra, the buffer spectrum was subtracted from the protein CD spectrum. All thermal unfolding curves were fitted to a two-state model that had been published recently. The mean of three independent experiments are reported. […]

[2] = target: T2, adenosine kinase of T. b. rhodesiense (TbrAK) (Trypanosoma brucei rhodesiense, UniProt Q584S0); experiment: Isothermal titration calorimetry (ITC) with TbrAK; format: binding; settings: for Kd: two-sites non-interacting binding model
T2 sequence (Q584S0 1-345): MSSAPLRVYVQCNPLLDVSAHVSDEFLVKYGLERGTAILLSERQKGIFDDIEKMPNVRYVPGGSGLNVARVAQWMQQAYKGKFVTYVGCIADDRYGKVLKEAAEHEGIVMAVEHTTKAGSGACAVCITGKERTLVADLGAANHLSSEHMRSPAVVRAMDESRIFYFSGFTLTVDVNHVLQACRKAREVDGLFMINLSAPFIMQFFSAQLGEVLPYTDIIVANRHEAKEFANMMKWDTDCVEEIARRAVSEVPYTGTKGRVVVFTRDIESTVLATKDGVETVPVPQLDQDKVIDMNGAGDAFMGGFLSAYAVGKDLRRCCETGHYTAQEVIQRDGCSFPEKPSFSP
Method: Isothermal titration calorimetry (ITC) was employed to elucidate the binding affinity of compound 1 toward TbrAK. All solutions were degassed for 5 min with gentle stirring under vacuum. TbrAK was dialyzed into buffer E2 (20 mM Tris, 150 mM NaCl, pH 7.5, 5% glycerol), diluted to 7 µM and supplemented with 1% DMSO, filtered and filled into the sample cell. The ligand solution was prepared by diluting a stock solution of compound 1 or 5 in DMSO with buffer E2 to give a final concentration of 150 µM and 1% DMSO. The final ligand solution was filtered before use. A titration experiment consisted of a first control injection of 1 µl followed by 27 injections, each of 10 µl and 20 s duration, with a 4-min interval in between. Raw data were collected, corrected for ligand heats of dilution, integrated and fit to the two-set non-interacting binding sites model using the Origin® software supplied with the instrument. The measurements were performed at least in duplicate.

[3] = target: T2, adenosine kinase of T. b. rhodesiense (TbrAK); experiment: Radiometric assay for kinetic study of TbrAK; settings: in presence of compound 1 (33.4 µM), 167 µM ATP
Method: Kinetic constants for adenosine phosphorylation by TbrAK were obtained by monitoring the conversion of [2-^3H]adenosine to [2-^3H]AMP. Reactions were executed at 37°C in a final volume of 30 µl containing 20 mM Hepes (pH 7.0), 50 mM NaCl, 167 µM ATP, 167 µM MgCl2, 0.34% BSA, and 0.34% DMSO. […] The concentration of [2-^3H]adenosine (0.1–12 µM) was chosen in consideration of Michaelis–Menten conditions for initial velocity measurements. The reaction was started by the addition of 1 ng (0.88 nM) TbrAK. The reactions were incubated and 5 µl aliquots were spotted on 5 mm diameter DE81-cellulose disks placed in a 96-well plate to stop the reaction. The disks were washed 3 times with 250 µl 5 mM ammonium formate, once with H2O, transferred to scintillation vials, and then soaked with 2 ml of a displacement solution (100 mM HCl, 200 mM KCl) and gently shaken for 1 minute to elute the phosphorylated products [9]. After adding 10 ml scintillation liquid, the samples were counted in scintillation counter. Km and Vmax with respect to adenosine and Ki for adenosine substrate-inhibition in absence and presence of compound 1 were determined by non-linear fit of the data to the substrate-inhibition model described elsewhere [10].

[4] = system: bloodstream-form T. b. brucei TbAK RNAi cells; experiment: Drug sensitivity test (Alamar blue) on TbAK RNAi knock-down mutant; format: cell-based; settings: Trypanosoma brucei
Method: The construction of the T. b. brucei adenosine kinase gene knock-down mutant has been described recently. Expression of a stem-loop construct targeting TbAK was induced by addition of 10 µg/ml tetracycline to the medium. Down-regulation of TbAK expression was verified by Northern blotting. Parasites were cultivated and drug sensitivity was tested using the Alamar blue test. IC50 values were calculated by nonlinear fitting to the sigmoidal dose-response curve using Origin® software. The assays were performed in triplicates for at least four times.

T. b. rhodesiense = system: T. b. rhodesiense; set-up: method as in PMID 17949068; settings: in vitro, blood stage parasite; read-out: IC50 against blood stage T.b. rhodesiense; cited from earlier work
[5] = target: T2, adenosine kinase of T. b. rhodesiense (TbrAK); experiment: Thermal stability assay (CD spectroscopy) regarding TbrAK; format: binding
Method: Thermal unfolding of TbrGAPDH and TbrAK was studied by circular dichroism (CD) spectroscopy at 220 nm within the temperature range of 20–90°C using a heating rate of 40°C/h.
as §1, with “TbrAK in buffer E1 (20 mM Hepes, 150 mM NaCl, pH 7.0) was used at 0.5 mg/ml (final concentration 13 µM). All measurements were done in a 0.5 mm cell and contained 0.1 % DMSO” for “DMSO”

[6] = target: T2, adenosine kinase of T. b. rhodesiense (TbrAK); experiment: Radiometric assay for EC50 determination (TbrAK hyperactivation); format: biochemical; settings: 12 µM [2-3H]adenosine, 167 µM ATP, 0.88 nM TbrAK, 37°C
Method: Radiometric assay for EC50 determination
The EC50 for hyperactivation of TbrAK by compound 1 was obtained by monitoring the conversion of [2-3H]adenosine to [2-3H]AMP. Reactions were executed at 37°C in a final volume of 30 µl containing 20 mM Hepes, 50 mM NaCl, 167 µM ATP, 167 µM MgCl2, 0.33 % BSA, and 1.0 % DMSO. The concentration of [2-3H]adenosine was kept constant at 12 µM while compound 1 was varied in the range of 0-100 µM. The reaction was started by the addition of 1 ng (0.88 nM) TbrAK. The reactions were incubated and 5 µl aliquots were spotted on 5 mm diameter DE81-cellulose disks placed in a 96-well plate to stop the reaction. The disks were washed 3 times with 250 µl 5 mM ammonium formate, once with H2O, transferred to scintillation vials, and then soaked with 2 ml of the displacement solution (100 mM HCl, 200 mM KCl) and gently shaken for 1 minute to elute the phosphorylated product. After adding 10 ml scintillation liquid, the samples were counted. For comparative reasons the activity recorded in absence of compound was set to 100 %. The mean of four independent measurements is reported.

[7] = set-up: method as in PMID 17949068; settings: cited from earlier work

T1 sequence (P22512 whole entry): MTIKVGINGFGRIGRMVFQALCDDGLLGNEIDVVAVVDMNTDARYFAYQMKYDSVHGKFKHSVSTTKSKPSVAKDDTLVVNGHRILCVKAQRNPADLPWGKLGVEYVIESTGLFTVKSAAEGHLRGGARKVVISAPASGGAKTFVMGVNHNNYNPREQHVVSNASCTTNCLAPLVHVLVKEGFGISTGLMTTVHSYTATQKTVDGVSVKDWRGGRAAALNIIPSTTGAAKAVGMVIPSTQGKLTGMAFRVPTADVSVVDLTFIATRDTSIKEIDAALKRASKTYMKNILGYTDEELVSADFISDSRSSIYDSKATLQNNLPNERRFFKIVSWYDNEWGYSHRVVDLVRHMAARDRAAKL

For `c1ccc(Oc2ccc(-c3cc(N4CCOCC4)[nH]n3)cc2)cc1` [compound 1, 4-[5-(4-phenoxyphenyl)-2H-pyrazol-3-yl]morpholine], the “Tm of TbrGAPDH” value [1] was 46.8 ± 0.1 °C, the “molecules of compound bound per molecule of enzyme” value [2] was “two” and the “ΔHbind, high affinity binding site” value [2] was -12.8 ± 3.22 kJ/mol. The “ΔHbind, low affinity binding site” value [2] was -4.73 ± 1 kJ/mol, the Kd ([2]; read-out: KD, high affinity binding site) was 0.075 ± 0.02 µM and the Kd ([2]; read-out: KD, low affinity binding site) was 0.497 ± 0.034 µM. For the same compound, the “Ki adenosine (substrate-inhibition)” value [3] was 78.4 ± 2.2 µM, the Vmax [3] was 14.20 ± 0.14 nM/min and the kcat [3] was 0.27 ± 0.01 s⁻¹. For the same compound, the IC50 ([4]; read-out: IC50 on TbAK RNAi cells, induced) was 0.271 ± 0.025 µM, the IC50 ([4]; read-out: IC50 on TbAK RNAi cells, non-induced) was 0.131 ± 0.043 µM and the IC50 (T. b. rhodesiense) was 1 µM. The “Tm of TbrAK” value ([5]; compound at 50 µM, 13 µM TbrAK) was 47.9±0.1 °C, the ΔTm at 50 µM ([5]; read-out: ΔTm of TbrAK) was 4.8 °C and the EC50 [6] was 0.038 ± 0.012 µM. For the same compound, the “cytotoxicity / general toxicity” value [7] was “low cytotoxicity”.
